Marks after values point to notes of the source that are not given here.
Experiments:
[1] = tested on: Adjuvant Arthritis in Rat; experiment: Effect on adjuvant arthritis in rat (footpad swelling suppression); assay type: in vivo; conditions: male Lewis rat, Freund's complete adjuvant; 0.3 mg/kg orally once a day for 14 days; edema volume of left hind paw, Day 14; n=6
Experimental: Effect on Adjuvant Arthritis in Rat
A male Lewis rat (7-week-old, Crea Japan Ltd.) was sensitized by an intracutaneous injection of 0.05 ml of Freund's complete adjuvant: 0.5% liquid paraffin suspension of dead tubercle bacillus) into the footpad of the right hind paw, and the test compound suspended in 0.5% methyl cellulose was orally administered once a day for 14 days. Immediately before sensitization (Day 0) and 14th day (Day 14), the edema volume of the left hind paw was measured by a plethysmometer (manufactured by Ugo Basile, Italy) and the footpad swelling suppression rate (%) relative to unsensitized rat was determined by the following formula.
The results are shown in mean ±S.E. of each group (n=6) and compared and detected by the Dunnett's method. In addition, less than 5% of the critical rate was taken as significant.

SMILES | Swelling suppression rate (%) [1] | melting point
COc1ccc(-c2c(Cl)c(CN3C(=O)COC3=O)nc3sc4c(c23)CC[C@H](C(N)=O)C4)cc1 [Example 4-2, (7S)-3-chloro-2-[(2,4-dioxo-1,3-oxazolidin-3-yl)methyl]-5,6,7,8-tetrahydro-4-(4-methoxyphenyl)[1]benzothieno[2,3-b]pyridine-7-carboxamide] | 82* % | 
NC(=O)[C@H]1CCc2c(sc3nc(CN4C(=O)CCC4=O)c(Cl)c(-c4ccc(O)cc4)c23)C1 [Example 8, (7S)-3-Chloro-2-[(2,5-dioxo-1-pyrrolidinyl)methyl]-5,6,7,8-tetrahydro-4-(4-hydroxyphenyl)[1]benzothieno[2,3-b]pyridine-7-carboxamide] |  | 299 to 300 °C
NC(=O)[C@H]1CCc2c(sc3nc(CN4C(=O)CSC4=O)c(Cl)c(-c4ccc(O)cc4)c23)C1 [Example 9, (7S)-3-Chloro-2-[(2,4-dioxo-1,3-thiazolidin-3-yl)methyl]-5,6,7,8-tetrahydro-4-(4-hydroxyphenyl)[1]benzothieno[2,3-b]pyridine-7-carboxamide] |  | 282 to 283 °C
COc1ccc(-c2c(Cl)c(CN3C(=O)CSC3=O)nc3sc4c(c23)CC[C@@H](C(N)=O)C4)cc1 (stereo in doubt) [Example 6-2, 3-chloro-2-[(2,4-dioxo-1,3-thiazolidin-3-yl)methyl]-5,6,7,8-tetrahydro-4-(4-methoxyphenyl)[1]benzothieno[2,3-b]pyridine-7-carboxamide] | 87* % | 
COc1ccc(-c2c(Cl)c(CN3C(=O)CCC3=O)nc3sc4c(c23)CC[C@@H](C(N)=O)C4)cc1 (stereo in doubt) [Example 5-2, 3-chloro-2-[(2,5-dioxo-1-pyrrolidinyl)methyl]-5,6,7,8-tetrahydro-4-(4-methoxyphenyl)[1]benzothieno[2,3-b]pyridine-7-carboxamide] | 88* % | 

Reference: US20080146602A1, “Thienopyridine Derivatives, Production Method and Use Thereof” (TAKEDA PHARMACEUTICAL COMPANY LIMITED, priority 2004, published 2008)
